Measured values as given in patent US20240059719A1, “GOLD COMPLEXES AS ANTICANCER AGENT” (King Saud University, priority 2023, published 2024).

Key:
Format in all cases: cell-based
[1] = test system: MCF-7 cells; experiment: Intracellular ATP analysis (colorimetric ATP assay kit); conditions: 0-100 μM, 12 h
Procedure: The intracellular ATP levels were determined after the exposure of PBTDG and erlotinib (0-100 μM) to MCF-7 cells for 12 h using a colorimetric ATP assay kit (Sigma-Aldrich, USA) according to the manufacturer instructions. The unknown concentrations of the test samples were calculated using the linear standard curve generated from the concentration of 0-12 nmole ATP. […]

[2] = test system: MCF-7 breast cancer cells; experiment: MTT cell viability analysis (cytotoxicity); conditions: Homo sapiens, MCF7, MCF-7 cells, 24 hours treatment
Procedure: MTT (3-(4,5-dimethylthiazol-2-yl)-2,5-diphenyltetrazolium bromide) assay was used for cell viability analysis. MCF-7 breast cancer cells were seeded in a cell culture plate (96-well) at 10^4 cells per well in 200 μl of Dulbecco's modified Eagle medium (DMEM). […] MTT solution (20 μl of 5 mg/mL) was added to each well of the micro plate, which were then incubated in a CO2 incubator at 37° C. for 3 hours. After incubation, the culture medium was removed and 100 μL of isopropanol were added to each well of the micro plate and the absorbance was recorded at 570 nm against reagent blank. The cell viability was calculated using the formula:
Cell viability %=100*(Absorbance sample)/(Absorbance blank)

[3] = test system: MCF-7 cells; experiment: Mitochondrial membrane potential analysis (Muse MitoPotential flow cytometry); conditions: 24 hours
Procedure: Muse MitoPotential Flow Cytometry Kit (Luminex, IL, USA) was used for measuring mitochondrial membrane potential (MMP). MCF-7 cells were seeded (15000 cells per well) in a 6-wells culture plate. […] A negative control (DMSO) was run in parallel. Finally, the cells were stained with Mito Potential reagents provided in the kit, following the manufacturer's instructions, and then analyzed by flow cytometry.

[4] = test system: MCF-7 cells; experiment: Reactive oxygen species analysis (Muse Oxidative Stress Kit, flow cytometry); conditions: 24 h
Procedure: For the analysis of reactive oxygen species (ROS), MCF-7 cells were seeded ([…]) in a 6-well plate and allowed to grow for 24 h at 37° C. under the environment of 5% CO2 and 95% humidity. […] DMS( )served as a negative control. The final DMSO concentration in each well was less than 0.1%. After harvesting the cells, they were stained with Muse® Oxidative Stress Kit (Luminex, IL, USA) following the manufacturer's instructions. The percentage of cells with oxidative stress was measured by flow cytometry analysis.

Row | Compound | Effect on intracellular ATP levels [1] | IC50 [2] | Mitochondrial membrane depolarization ([3]; 1.0 μM) | Mitochondrial membrane depolarization ([3]; 5.0 μM) | ROS generation ([4]; 1 μM) | ROS generation ([4]; 5 μM)
1 | C#Cc1cccc(Nc2ncnc3cc(OCCOC)c(OCCOC)cc23)c1 [erlotinib] | depleted | – | – | – | – | –
2 | CNC(=O)c1cc(Oc2ccc(NC(=O)Nc3ccc(Cl)c(C(F)(F)F)c3)cc2)ccn1 [sorafenib] | – | 4.45 µM | 2.7% | 12.0% | 73.76% | 122.11%
